Experimental data taken from patent US6063803A, “Octahydropyrrolo-[3,4-c]carbazoles useful as analgesic agents” (Ortho-McNeil Pharmaceutical, Inc., priority 1999, dated 2000).

Target: α1-adrenergic receptor
Experiment: α1-adrenergic receptor binding (3H-prazosin displacement, rat cortex membranes)
Set-up: species or system rat (Wistar)
Details: 3H-prazosin 0.05 nM, 25° C., 20 min
Source text: Charles River male Wistar (virus-free) rats were group housed for approximately one week and given food and water (Wayne Lab Blox) ad libitum. Animals were exposed to equal hours(12--12) of dark and light and used at a weight range of 150-280 g (8 to 10 weeks of age). Rats were sacrificed by cervical dislocation and their brains were rapidly excised and immediately placed on ice. The cortex was removed, weighed, and used immediately or frozen on dry ice.
The frozen tissue was homogenized in 20 volumes of HEPES buffered sucrose (10 mM HEPES, 300 mM sucrose, pH 7.5) using a motor driven Teflon pestle/glass homogenizer (all homogenates and solutions were maintained at 4-8° C.). The homogenate was centrifuged at 1000×g for 10 minutes, and the supernatant was recentrifuged at 48,000×g for 10 min. […]
The samples were incubated in a 25° C. water bath for 20 min, harvested on a Brandel Cell Harvester on to Wallac filtermat-B sheets (96 sample format), washed three times with 2 mL cold HEPES-buffer (10 mM, pH 7.5), and dried in a microwave oven. To each sample area 80 ul of Betaplate Scint scintillation fluid (LKB) was added and analyzed on a LKB (Wallac) 1205 BetaPlate liquid scintillation counter.
The data were used to calculate either the % inhibition compared to control binding (a single concentration of test compound is evaluated) or a Ki value (a range of concentrations are tested). […]

## CN1CC2CCc3[nH]c4ccccc4c3C2C1 (single isomer, unassigned) [Compound 58]
  Ki: 61 nM
